Data as given in patent US7737128B2, “Pyrimidines, such as uridine, in treatments for patients with bipolar disorder” (The McLean Hospital Corporation, priority 2004, dated 2010).
Where two headings read alike, the source gives them in different places.

How the values were obtained:
in vivo = conditions: both sexes, Crl: CD (SD)IGS BR, rat, po
Method: RG2133 has been tested in a repeat dose rodent toxicity and toxicokinetic study. Three groups of ten male and ten female rats (Crl: CD® (SD)IGS BR strain) received RG2133 orally, by gavage, at dosages of 300, 1000, or 2000 mg/kg/day (administered as 150, 500, or 1000 mg/kg b.i.d.) in aqueous 1% carboxymethylcellulose with methyl paraben (at 1.8 g/l) and propyl paraben (at 0.2 g/l) for four weeks. Animals were examined by observation and lab analysis of blood and urine for evidence of toxicity, and results are shown in Table 1. Tissues were examined microscopically for evidence of drug related toxicity. […] The no-observed-adverse-effect-level (NOAEL) was considered to be 2000 mg/kg/day (1000 mg/kg b.i.d.).

blood lactate levels = assay: Plasma lactate elevation after oral gavage (stress response) during repeat dose toxicology study; assay type: in vivo, rats; conditions: rat plasma lactate
[1] = test system: patients with bipolar disorder; assay: Adverse events in the 6-week patient study; assay type: in vivo, human
Source text: The total number of adverse events is reported by the number and percentage of subjects experiencing each adverse event. If a subject reported the same adverse event over the course of the study, that event was counted once.
During the course of the 6-week study, there were some reported side effects to the medication. 1 subject reported stomach cramps, 1 reported nausea, 4 reported decreased appetite, 3 reported an increase in constipation, 4 reported diarrhea, 1 reported muscle cramps, 2 reported headaches, 1 reported fatigue, 2 reported problems with sleeping, 2 reported increased flatulence, and 1 reported a decrease in libido. In addition, one subject reported changes in their vision that affected their depth perception. […] The subject independently decided to increase their dose back to its original amount in response to their manic reaction to the decreased dose. Due to this protocol deviation, and the subject's manic break, the subject was terminated from the study.

fluorouracil toxicity = conditions: cited from earlier work
[2] = metabolites, not the prodrug, are observed in blood; cited from earlier work
[3] = test system: patients with bipolar disorder; assay: Phase I 6-week open-label clinical trial in outpatients with bipolar disorder (rating scales, patient histories)
Source text: The new methods are based on a Phase I open-label clinical trial of RG2133, a prodrug of uridine, designed to assess the impact of uridine in patients with bipolar disorder. […] The trial assessed the impact of daily, oral administration of escalating doses of RG2133 over a 6 week period on the symptoms associated with bipolar disorder, which are not adequately treated with existing drugs including SSRIs such as Prozac® or Zoloft®. The trial included 11 patients.
Outpatients with bipolar disorder were recruited for this 6-week open-label study. Patients' daily dose amounts were divided into three daily doses. Subjects received an initial RG2133 dose of 6 g/day. […] Subjects were monitored for changes in mood using standard rating scales. The subjects' physical status was followed clinically and with standard laboratory measures to monitor for any adverse effects and/or toxicity.
During the baseline visit, a detailed psychiatric and medical history was obtained, and the following standard rating scales were performed: Structured Clinical Interview for DSM-IV (SCID) for diagnosis, Young Mania Rating Scale (YMRS), Montgomery-Asberg Depression rating Scale (MADRS), the Hamilton Anxiety Scale (HAMA), Clinical Global Impression scale (CGI), the Global Assessment of Function (GAF) scale, quality of life scale (SF-36), as well as a brief adverse-effect rating scale.
After the baseline evaluation, patients returned for office visits at weeks 1, 2, 3, 4, and 6. The same rating scales were performed at each follow-up office visit, except for the SCID. Instead of the full SCID at the follow-up visits, only the SCID screening questions for mania and depression were performed to aid in the determination of syndromic recovery or recurrence. In addition, patients maintained a daily Mood Diary, which was reviewed at each study visit to elicit symptom recall. Routine clinical and laboratory evaluations of each patient's physical status occurred at baseline and at regular intervals. Subjects were monitored for changes in mood using standard rating scales. The subjects' physical status was followed clinically and with standard laboratory measures to monitor for any adverse effects and/or toxicity.
During the study patients were evaluated using the Montgomery-Asberg Depression Rating Scale (MADRS). This scale measures the effect of treatment on depression severity relative to a baseline assessment before treatment. The MADRS measures the severity of a number of symptoms on a scale from 0 to 60, including mood and sadness, tension, sleep, appetite, energy, concentration, suicidal ideation, and restlessness. Increasing scores reflect a greater severity of depression. Scores of 15-25 on the MADRS scale indicate moderate depression. Scores above 25 indicate clinically severe depression.
During the study patients were also evaluated using the Young Mania Rating Scale (YMRS). This scale assesses the severity of mania in patients already diagnosed with mania based on a personal interview. Scores of 1 to 12 are not considered to be suffering from mania, whereas a score of 13 indicates minimal mania. Increasing scores to 44, indicate progressively severe mania.
During the study patients were also evaluated using Clinical Global Impression (CGI) scale. A clinician rated the severity of the patient's illness relative to the clinician's past experience with patients with the same diagnosis. At the outset of the study a clinician created a baseline single item score on a 7 point scale from 1 (‘normal’, not ill) to 7 (extremely ill). CGI was then used to track the clinical distance between a patient's individual's current condition and his or her baseline condition at the start of treatment.
During the study patients were evaluated using Global Assessment of Functioning (GAF), which is a modified version of the Global Assessment Scale (GAS).

[4] = uridine infusion, cited from earlier work
[5] = cited from earlier work
[6] = in vivo; cited from earlier work
[7] = oral, cited from earlier work
[8] = bipolar patients, daily oral escalating doses, 6 weeks

For CC(=O)OC[C@H]1O[C@@H](n2ccc(=O)[nH]c2=O)[C@H](OC(C)=O)[C@@H]1OC(C)=O [RG2133, 2′,3′,5′-tri-O-acetyluridine], the NOAEL at 28 days (in vivo) was 2000 mg/kg/day, the “Effect on lactate level relative to normal baseline value (2.4 mM)” value (blood lactate levels) was “did not reduce the lactate level below the normal baseline value” and the “Subjects reporting a decrease in libido” value ([1]; 6-week study) was 1. The “Subjects reporting an increase in constipation” value ([1]; 6-week study) was 3, the “Subjects reporting changes in vision that affected depth perception” value ([1]; 6-week study) was “one” and the “Subjects reporting decreased appetite” value ([1]; 6-week study) was 4. The Subjects reporting diarrhea ([1]; 6-week study) was 4, the Subjects reporting fatigue ([1]; 6-week study) was 1 and the Subjects reporting headaches ([1]; 6-week study) was 2. The “Subjects reporting increased flatulence” value ([1]; 6-week study) was 2, the “Subjects reporting muscle cramps” value ([1]; 6-week study) was 1 and the Subjects reporting nausea ([1]; 6-week study) was 1. The “Subjects reporting problems with sleeping” value ([1]; 6-week study) was 2, the “Subjects reporting stomach cramps” value ([1]; 6-week study) was 1 and the “Subjects reporting weaker vision” value ([1]; 6-week study) was “Another subject”. For the same compound, the “Subjects reporting a manic episode” value ([1]; week 3, after reducing the dose) was “One”, the “Effect on hematologic toxicities associated with fluorouracil” value (fluorouracil toxicity; 6 g/dose every 6 hours) was “reduction in hematologic toxicities” and the Adverse effect seen (fluorouracil toxicity; cancer patients, toxicity evaluation equivocal because of cancer and fluorouracil toxicities) was “Diarrhea”. For the same compound, the “peak blood uridine levels” value (fluorouracil toxicity; suspension and tablet forms, 6 g/dose every 6 hours for 9 doses) was 167 µM, the “Metabolism of enteral dosages” value [2] was “rapidly metabolized to uridine and uracil” and the “Individual patient: mania-type event” value ([3]; Patient #3, bipolar II, on antidepressant, 12 g/day) was “slight hypomania at week three”. The “Individual patient: reported mood” value ([3]; Patient #4, bipolar I, on antidepressant, 6 to 12 g/day) was “feeling stable”, the “Individual patient: mood at end of study” value ([3]; Patient #4, week six) was “mood deteriorated at week six” and the “Individual patient: mania-type event” value ([3]; Patient #4, week three) was “some hypomania at week three”. The “Individual patient: reported mood” value ([3]; Patient #5, bipolar I, no antidepressant, 6 g/day) was “significant change in mood at week one”, the “Individual patient: adverse effect” value ([3]; Patient #6) was “some eye pain” and the “Individual patient: reported mood” value ([3]; Patient #6, no antidepressant, 6 g/day) was “feeling significantly better than they had in two years”. The “Individual patient: reported mood” value ([3]; Patient #7, bipolar I, on antidepressant, 6 to 18 g/day) was “no change in mood”, the “Individual patient: adverse event” value ([3]; Patient #11) was “severe bout of colitis” and the “Individual patient: bipolar symptoms” value ([3]; Patient #11, bipolar II, on antidepressant, 12 g/day) was “complete remission at week four”. The “Individual patient: adverse effect” value ([3]; Patient #13) was “slight change in depth perception leading to two falls”, the “Individual patient: reported mood” value ([3]; Patient #13, bipolar I, no antidepressant, 6 to 9 g/day) was “feeling less depressed and more hopeful” and the “Individual patient: complaints” value ([3]; Patient #15, after three weeks) was “dizziness spells, constipation, and a reported manic episode”. The “Individual patient: reported mood” value ([3]; Patient #15, bipolar II, no antidepressant, 6 to 12 g/day) was “feeling less volatile and fewer mood swings”, the “Individual patient: complaints” value ([3]; Patient #16) was “loose stools and increased flatulence” and the “Individual patient: reported mood” value ([3]; Patient #16, bipolar II, on antidepressant, 6 to 12 g/day) was “no change in mood”. The “Individual patient: complaints” value ([3]; Patient #17) was “loose stools and increased flatulence”, the “Individual patient: reported mood” value ([3]; Patient #17, bipolar II, on antidepressant, 6 to 12 g/day) was “no change in mood” and the “Average GAF score” value ([3]; after week four (FIG. 4)) was “declined to a level slightly above the initial GAF score”. For the same compound, the “Average GAF score” value ([3]; beginning of the study to week four (FIG. 4)) was “improved slightly”, the “Average MADRS scores” value ([3]; between week three and week six (FIG. 1)) was “rose slightly” and the Induction of mania [3, 8] was “did not induce mania”. The Safety of administration [3, 8] was “safe”, the “Average female CGI scores” value ([3]; course of the study relative to initial score, unlike male scores (FIG. 7)) was “improved” and the “Averaged YMRS scores” value ([3]; during the course of the study (FIG. 2)) was “slight decrease”. For the same compound, the “Average HAM-A score” value ([3]; during the course of the study (FIG. 5)) was “went down slightly”, the “Female YMRS scores vs initial baseline” value ([3]; during the study (FIG. 6)) was “did not increase above the initial baseline score” and the “Average CGI score” value ([3]; end of the study vs baseline (FIG. 3)) was “somewhat above baseline”. For the same compound, the “Average MADRS scores” value ([3]; first three weeks of treatment (FIG. 1)) was “slight decrease”, the “Average YMRS, female patients” value ([3]; first three weeks, female vs male (FIG. 6)) was “declined slightly more than males” and the “Average CGI scores, patients not taking antidepressant” value ([3]; vs patients on antidepressant medication (FIG. 8)) was “faster decline”. For the same compound, the CGI ([3]; weeks one to three (FIG. 3)) was “improved slightly”, the CGI ([3]; weeks three to six (FIG. 3)) was “deteriorated slightly” and the “Effect on patients' depression (MADRS)” value ([3]; whole study) was “did not significantly worsen patients' depression”.

In the case of O=c1ccn([C@@H]2O[C@H](CO)[C@@H](O)[C@H]2O)c(=O)[nH]1 [uridine], the “Plasma concentrations above baseline values” ([4]; baseline 3 μM) is listed as > 100 fold, the Observed side effect [4] is listed as “fever” and the “Effect of higher dosages” value ([5]; above 1000 mg/kg/day, some patients) is listed as “mild diarrhea”. For the same compound, the “Dosages with no known toxic effects” value ([5]; pure uridine, long-term experience) was “up to 1000 mg/kg/day”, the volume distribution [6] was “around 0.634 liters/kg” and the Reported effects ([7]; 10 or 12 g/m^2) was “cramps and diarrhea”. For the same compound, the “maximum tolerated dose without side effects” value ([7]; multiple dosing every 6 hours) was 5 g/m^2, the Reported effects ([7]; repeat doses every 6 hours of 8 g/m^2) was “diarrhea” and the “maximum tolerated dose without side effects” value ([7]; single dose) was 10 g/m^2. For the same compound, the Bioavailability [7] was 5.8-9.9%, the “Doses at which no toxicity was observed” value [7] was ≤ 8 g/m^2 and the “peak plasma levels of uridine” value [7] was 80 µM.
